Reference: article PMC11596392, “Enhanced Antibacterial, Anti-Inflammatory, and Antibiofilm Activities of Tryptophan-Substituted Peptides Derived from Cecropin A-Melittin Hybrid Peptide BP100” (Molecules, 2024)
Where no end group is shown, it is not given here.

Columns and labels:
[1] = system: MDRPA (CCARM 2095); type: cell-based, multidrug-resistant Pseudomonas aeruginosa; conditions: broth microdilution in MHB, 37 °C, 24 h, 100% inhibition of growth
Description: (§1) The antibacterial efficacy of the synthesized peptides was evaluated by determining the minimal inhibitory concentrations (MICs) against six standard bacterial strains and five drug-resistant bacterial strains using the Clinical and Laboratory Standards Institute (CLSI) microdilution method. Melittin served as the positive control.
(§2) The minimal inhibitory concentrations (MICs) of the peptides against bacterial strains were determined using a modified broth-microdilution method in accordance with the National Committee for Clinical Laboratory Standards (NCCLS) guidelines. Overnight cultures were diluted in cation-adjusted Mueller–Hinton Broth (MHB) to achieve an inoculum density of 2 × 10^6 CFU/mL. A two-fold serial dilution of the peptide solution (100 μL) was introduced into microtiter plates, followed by the addition of 100 μL of bacterial suspension. The plates were then incubated at 37 °C for 24 h to determine the MICs. Wells containing only culture media served as negative controls, while those with added bacteria functioned as positive controls. The MIC, expressed in μM, was defined as the lowest peptide concentration that prevented visible bacterial growth. This protocol was also employed to determine MICs in the presence of physiological salts (150 mM of NaCl, 4.5 mM of KCl, 6 μM of NH4Cl, 1 mM of MgCl2, 2.5 mM of CaCl2, and 4 μM of FeCl3) and 20% human serum to assess the peptides’ efficacy under conditions more closely resembling physiological environments. All experiments were conducted in triplicate and repeated three times independently to ensure reproducibility and statistical significance of the results.

[2] = system: MDRPA (CCARM 2109); type: cell-based, multidrug-resistant Pseudomonas aeruginosa; conditions: broth microdilution in MHB, 37 °C, 24 h, 100% inhibition of growth
Description: as §1, §2

[3] = system: MRSA (CCARM 3089); type: cell-based, methicillin-resistant Staphylococcus aureus; conditions: broth microdilution in MHB, 37 °C, 24 h, 100% inhibition of growth
Description: as §1, §2

[4] = system: MRSA (CCARM 3090); type: cell-based, methicillin-resistant Staphylococcus aureus; conditions: broth microdilution in MHB, 37 °C, 24 h, 100% inhibition of growth
Description: as §1, §2

[5] = system: MDRPA (CCARM 2095) biofilm formation; type: cell-based, multidrug-resistant Pseudomonas aeruginosa; conditions: overnight 37 °C, crystal violet staining; for MBIC50: 50% inhibition; for MBIC90: 90% inhibition
Excerpt: Bacterial biofilms, comprising communities of bacterial cells encased in a matrix of polysaccharides and nucleic acids, present a significant challenge for conventional antibiotics due to the protective nature of this matrix. Biofilms can enhance bacterial resistance to antibiotics by up to 1000-fold compared to planktonic bacteria. To address this issue, there is an urgent need to discover and develop novel alternative therapeutic agents capable of effectively combating biofilm-forming bacteria. […] Our research specifically focused on evaluating the impact of BP100 and its analogs on biofilm formation and eradication using multidrug-resistant Pseudomonas aeruginosa (MDRPA), a common pathogen responsible for biofilm-mediated nosocomial infections. The adhered biomass was quantified using crystal violet staining, and the minimum biofilm inhibitory concentration (MBIC90) was determined as the lowest concentration required to inhibit 90% of biofilm growth relative to the positive control. […] Human cathelicidin LL-37 is well-documented for its potent antibiofilm properties.
The inhibitory activity of the peptides on biofilm formation was evaluated against multidrug-resistant Pseudomonas aeruginosa (MDRPA) (CCARM 2095) using a biofilm inhibition assay to determine the minimal biofilm inhibitory concentration (MBIC). Peptide solutions were serially diluted in sterile water and aliquoted (100 μL) into a 96-well Costar polypropylene plate (Corning Inc., Corning, NY, USA). An equal volume of MDRPA suspension in Mueller–Hinton Broth (MHB), adjusted to 1 × 10^6 CFU/mL, was added to each well, resulting in a final inoculum density of 5 × 10^5 CFU/mL. Following overnight incubation at 37 °C, bacterial growth was quantified by measuring the optical density (OD) at 595 nm. Planktonic cells were then discarded, and the attached biofilms were washed thrice with distilled water. Residual biofilms were stained with 0.1% crystal violet for five minutes, washed to remove non-adherent dye, and subsequently destained using 95% ethanol. The OD at 595 nm was measured again to assess the biofilm mass. Control wells contained untreated bacteria. The MBIC was defined as the lowest peptide concentration that inhibited any residual crystal violet staining or biofilm formation. All assays were conducted in triplicate to ensure reproducibility. This method allows for the quantitative assessment of the peptides’ ability to prevent biofilm formation, a critical virulence factor in many bacterial infections, particularly those caused by multidrug-resistant strains.

[6] = system: preformed MDRPA (CCARM 2095) biofilms; type: cell-based, multidrug-resistant Pseudomonas aeruginosa; conditions: 24 h treatment; for MBEC50: 50% eradication; for MBEC90: 90% eradication
Description: While preventing biofilm formation on surfaces is crucial, treating established biofilm infections presents a significant challenge due to the extracellular polymeric substance (EPS) matrix hindering antibiotic penetration and the high cell density within mature biofilms. To address this challenge, we evaluated the ability of BP100 and its analogs to eradicate established MDRPA biofilms over a 24 h period. The minimum biofilm eradication concentration (MBEC90) was determined using crystal violet staining as the lowest concentration that reduced biomass by more than 90%. Among these peptides, BP5, BP6, BP7, BP8, BP9, BP11, and BP13 eradicated preformed MDRPA biofilms by more than 90% at a concentration of 8 μM (Figure 3c,d and Table 3).
The minimal biofilm eradication concentration (MBEC) for peptides against the multidrug-resistant Pseudomonas aeruginosa (MDRPA) (CCARM 2095) strain was assessed using the Calgary Biofilm Device (CBD), supplied by Innovotech, Edmonton, AB, Canada. A bacterial suspension with a density of (1 × 10^6) CFU/mL in (150 µL) of Luria–Bertani (LB) media was dispensed into each well of a 96-well microtiter plate, which was equipped with a peg lid (Innovotech, product code: 19111). This plate was incubated at 37 °C for 24 h with agitation at 110 rpm, promoting biofilm formation on the pegs. Subsequently, the peg lid was washed with phosphate-buffered saline (PBS, 0.01 M) and relocated to a fresh plate containing varying peptide concentrations (200 µL per well). The biofilms were then subjected to these peptides under the same incubation conditions. After another PBS rinse, the peg lid was moved to a recovery plate filled with (200 µL) of LB media per well. To detach the biofilms from the pegs, the recovery plate underwent sonication in a water bath for 10 to 15 min. Finally, the recovery plate was incubated at 37 °C for 24 h with agitation at 110 rpm, allowing any surviving bacteria to proliferate and cause turbidity. The MBEC is defined as the lowest concentration of peptides that inhibited turbidity formation in the recovery plate in comparison to sterility controls. This experiment was conducted in triplicate, and the median value from each trial was recorded.

[7] = system: P. aeruginosa (KCTC 1637); type: cell-based, Pseudomonas aeruginosa; conditions: broth microdilution in MHB, 37 °C, 24 h, 100% inhibition of growth
Description: as §1, §2

[8] = system: S. typhimurium (KCTC 1926); type: cell-based, Salmonella typhimurium; conditions: broth microdilution in MHB, 37 °C, 24 h, 100% inhibition of growth
Description: as §1, §2

Row | Compound | Minimal Inhibitory Concentration (MIC) [1] | Minimal Inhibitory Concentration (MIC) [2] | Minimal Inhibitory Concentration (MIC) [3] | Minimal Inhibitory Concentration (MIC) [4] | MBIC50 [5] | MBIC90 [5] | MBEC50 [6] | MBEC90 [6] | Minimal Inhibitory Concentration (MIC) [7] | Minimal Inhibitory Concentration (MIC) [8]
1 | CC[C@H](C)[C@H](NC(=O)[C@H](CCCCN)NC(=O)[C@H](CCCCN)NC(=O)[C@H](Cc1c[nH]c2ccccc12)NC(=O)[C@H](CC(C)C)NC(=O)[C@H](CCCCN)NC(=O)[C@@H](N)CCCCN)C(=O)N[C@@H](CC(C)C)C(=O)N[C@@H](CCCCN)C(=O)N[C@@H](Cc1ccc(O)cc1)C(=O)N[C@@H](CC(C)C)C(N)=O [BP1] | 16 µM | 16 µM | 32 µM | 64 µM | 4 to 8 µM | 8 µM | 8 µM | 16 µM | 16 µM | 8 µM
2 | CC(C)C[C@H](NC(=O)[C@H](Cc1ccc(O)cc1)NC(=O)[C@H](CCCCN)NC(=O)[C@H](CC(C)C)NC(=O)[C@H](Cc1c[nH]c2ccccc12)NC(=O)[C@H](CCCCN)NC(=O)[C@H](CCCCN)NC(=O)[C@H](Cc1ccccc1)NC(=O)[C@H](CC(C)C)NC(=O)[C@H](CCCCN)NC(=O)[C@@H](N)CCCCN)C(N)=O [BP2] | 8 µM | 4 µM | 16 µM | 16 µM | 8 to 16 µM | 16 µM | 16 to 32 µM | 32 µM | 8 µM | 8 µM
3 | CC[C@H](C)[C@H](NC(=O)[C@H](CCCCN)NC(=O)[C@H](CCCCN)NC(=O)[C@H](Cc1ccccc1)NC(=O)[C@H](CC(C)C)NC(=O)[C@H](CCCCN)NC(=O)[C@@H](N)CCCCN)C(=O)N[C@@H](Cc1c[nH]c2ccccc12)C(=O)N[C@@H](CCCCN)C(=O)N[C@@H](Cc1ccc(O)cc1)C(=O)N[C@@H](CC(C)C)C(N)=O [BP3] | 16 µM | 16 µM | 64 µM | 64 µM | 8 to 16 µM | 16 µM | 16 µM | 32 µM | 32 µM | 4 µM
4 | CC[C@H](C)[C@H](NC(=O)[C@H](CCCCN)NC(=O)[C@H](CCCCN)NC(=O)[C@H](Cc1ccccc1)NC(=O)[C@H](CC(C)C)NC(=O)[C@H](CCCCN)NC(=O)[C@@H](N)CCCCN)C(=O)N[C@@H](CC(C)C)C(=O)N[C@@H](CCCCN)C(=O)N[C@@H](Cc1c[nH]c2ccccc12)C(=O)N[C@@H](CC(C)C)C(N)=O [BP4] | 8 µM | 16 µM | 64 µM | 64 µM | 4 to 8 µM | 8 µM | 8 µM | 32 µM | 16 µM | 2 µM
5 | CC[C@H](C)[C@H](NC(=O)[C@H](CCCCN)NC(=O)[C@H](CCCCN)NC(=O)[C@H](Cc1ccccc1)NC(=O)[C@H](CC(C)C)NC(=O)[C@H](CCCCN)NC(=O)[C@@H](N)CCCCN)C(=O)N[C@@H](CC(C)C)C(=O)N[C@@H](CCCCN)C(=O)N[C@@H](Cc1ccc(O)cc1)C(=O)N[C@@H](CC(C)C)C(N)=O [BP100] | 32 µM | 16 µM | 32 µM | 64 µM | 4 to 8 µM | 8 µM | 16 to 32 µM | 32 µM | 16 µM | 4 µM
6 | KKLFKKILKWW-NH2 [BP12] | 16 µM | 16 µM | 64 µM | 64 µM | 4 to 8 µM | 8 µM | 8 to 16 µM | 16 µM | 16 µM | 4 µM
